Measured values: patent US20260284208A1, “SYSTEM” (Oxford University Innovation Limited, priority 2023, published 2026)

Assays:
Assay type in all cases: cell-based
[1] = molecular target: wild-type IKZF1/IKZF3 ZF degron sequence (WT) fused to eGFP (Homo sapiens, UniProt Q96SW2+Q9UKT9); assay: GFP degradation flow cytometry assay (GFP:mCherry ratio), WT ZF-eGFP; conditions: for percent degradation of WT ZF-GFP at 10 µM: 18 h, Jurkat, flow cytometry concentration curve; for degradation ability against the WT ZF sequence: flow cytometry assay
Sequence of wild-type IKZF1/IKZF3 ZF degron sequence (WT) fused to eGFP (Q9UKT9 130-189): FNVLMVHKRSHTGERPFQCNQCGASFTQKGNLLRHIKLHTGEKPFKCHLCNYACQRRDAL
Sequence of wild-type IKZF1/IKZF3 ZF degron sequence (WT) fused to eGFP (Q96SW2 whole entry, the tested form may be a part): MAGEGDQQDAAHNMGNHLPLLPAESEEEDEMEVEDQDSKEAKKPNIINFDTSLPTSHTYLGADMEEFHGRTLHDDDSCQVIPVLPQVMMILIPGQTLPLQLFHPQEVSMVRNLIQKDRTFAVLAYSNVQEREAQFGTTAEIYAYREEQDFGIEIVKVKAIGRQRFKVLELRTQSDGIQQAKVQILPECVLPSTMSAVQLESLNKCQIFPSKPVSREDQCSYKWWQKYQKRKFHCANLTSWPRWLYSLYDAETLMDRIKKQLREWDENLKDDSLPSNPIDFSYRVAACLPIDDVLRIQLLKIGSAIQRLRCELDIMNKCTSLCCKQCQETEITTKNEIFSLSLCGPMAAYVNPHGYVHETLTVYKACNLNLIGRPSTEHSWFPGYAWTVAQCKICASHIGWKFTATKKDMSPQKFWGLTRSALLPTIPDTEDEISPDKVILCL
Description: FIG. 2. A. A plasmid containing a ZF degron fused to GFP in the same gene as mCherry. Jurkats that have been lentivirally transduced with this plasmid will express ZF-GFP and mCherry at a consistent ratio. B Addition of an IMID such as pomalidomide will induce GFP degradation via the degron's functionality. C Incubation with an IMID produces a degradation curve.
(§1) Jurkat cells were added to 96 well U-bottom assay plates (Falcon) at 1×10^5 cells per well and treated with compounds for 18 hours at 37° C. and 5% CO2. Cells were stained with 1 μg/mL DAPI (ThermoFisher) and acquired on a Cytoflex S (Beckman Coulter). Data was analysed using FlowJo 10.8.1 (BD).
To test these compounds, we used a flow cytometry assay (FIG. 2) employing an Jurkat cells—an immortalised human blood cell line—that had been stably transduced with a plasmid using a lentiviral vector. This plasmid contained a gene for a 60 amino acid ZF region derived from IKZF3 fused to eGFP, separated from mCherry by an internal ribosomal entry site (IRES). This meant that these cells would express ZF-GFP and mCherry in consistent relative amounts, so under normal conditions the ratio of GFP:mCherry would remain the same regardless of overall expression levels. However, upon incubation with an IMID, ZF-GFP would be selectively degraded, altering this ratio and thus providing an easily measurable proxy for level of ZF degradation.
We carried out three biological replicates of this assay for each IMID analogue with a 0.1% DMSO control and six concentrations of IMID (1 nM, 10 nM, 100 nM, 1 μM, 10 μM and 100 μM) for each compound. This yielded a degradation curve for each compound, from which a pDC50 value could be derived, indicating how potent a degrader each of our compound were relative to thalidomide, lenalidomide and pomalidomide.

[2] = molecular target: Q147A mutated ZF (ANQS) fused to eGFP (Homo sapiens, UniProt Q96SW2+Q9UKT9, Q147A); assay: GFP degradation flow cytometry assay, Q147A mutant ZF-eGFP; conditions: for orthogonality index value (from pDC50 Q147A and pDC50 WT): Q147A vs WT ZF, compounds with Q147A Dmax >=0.4 dismissed, 1080 min; for degradation against Q147A relative to WT: flow cytometry, pDC50 comparison
Sequence of Q147A mutated ZF (ANQS) fused to eGFP (Q9UKT9 130-189 Q147A): as the sequence (Q9UKT9 130-189) above, with Q18A counted along it
Sequence of Q147A mutated ZF (ANQS) fused to eGFP (Q96SW2 whole entry, the tested form may be a part): as the sequence (Q96SW2 whole entry, the tested form may be a part) above
Description: as §1
To probe the potential for orthogonality in a bump-and-hole context, the same assay was carried out again on all compounds, but this time with a Q147A mutated ZF.
The pDC50 values derived from this screen were used along with the pDC50 values from the WT screen to assign an orthogonality index value to every compound according the following equation: […]

[3] = molecular target: endogenous IKZF3 in Jurkat cells (Homo sapiens, UniProt Q96SW2+Q9UKT9); assay: Immunoblotting of endogenous IKZF3; conditions: for endogenous IKZF3 level relative to DMSO control (Western blot): 1 μM or 10 μM, untransduced Jurkat cells; for ability to degrade endogenous IKZF3 (Western blot): even at 10 uM
Sequence of endogenous IKZF3 in Jurkat cells (Q9UKT9 whole entry): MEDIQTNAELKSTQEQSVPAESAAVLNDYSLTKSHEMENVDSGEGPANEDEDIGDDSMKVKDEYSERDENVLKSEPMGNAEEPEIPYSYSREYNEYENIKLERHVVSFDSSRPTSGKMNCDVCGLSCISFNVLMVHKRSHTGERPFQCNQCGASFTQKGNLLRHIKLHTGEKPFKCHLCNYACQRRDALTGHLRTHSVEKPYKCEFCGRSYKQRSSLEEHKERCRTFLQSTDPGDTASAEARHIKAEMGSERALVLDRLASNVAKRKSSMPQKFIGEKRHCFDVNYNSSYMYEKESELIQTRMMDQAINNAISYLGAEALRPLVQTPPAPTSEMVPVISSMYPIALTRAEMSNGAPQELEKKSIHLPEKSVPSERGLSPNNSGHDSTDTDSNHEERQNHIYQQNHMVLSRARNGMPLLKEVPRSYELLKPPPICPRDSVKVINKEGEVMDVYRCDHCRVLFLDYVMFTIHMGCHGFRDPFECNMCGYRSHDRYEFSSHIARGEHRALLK
Sequence of endogenous IKZF3 in Jurkat cells (Q96SW2 whole entry): as the sequence (Q96SW2 whole entry, the tested form may be a part) above
Description: (§2) Jurkat cells were added to T25 flasks (Falcon) at 2×10^6 cells per flask and were incubated with compounds for 18 hours at 37° C. and 5% CO2. Cells were lysed in buffer containing 9 M urea (Sigma), 75 mM Tris-HCl (Sigma), 0.15 M β-mercaptoethanol (Merck) and 10× diluted protease inhibitor cocktail (Merck). Cells lysates were sonicated for 10 seconds 3 times, centrifuged at 13000 rpm for 10 minutes at 4° C. and the supernatants were transferred into fresh tubes. Protein concentrations were measured using a Pierce BCA Protein Assay Kit (Thermo). Proteins were boiled in Laemmli sample buffer (Bio-Rad) for 5 minutes at 100° C. and separated by SDS-PAGE (7.5% Mini-PROTEAN TGX gels, Bio-Rad) and compared to the PageRuler Prestained Protein Ladder (Thermo). Semi-dry blotting was done on a Trans-Blot Turbo Transfer System (Bio-Rad) with the Trans-Blot Turbo RTA Mini 0.2 μm PVDF Transfer Kit (Bio-Rad) using the default mixed molecular weight mode. Membranes were blocked in 5% non-fat dry milk (Bio Rad) in TBS-T. Primary IKZF3 (D1C1E, Cell Signaling Technology Europe), eGFP (F56-6A1.2.3, Thermo) and vinculin (E1E9V, Cell Signaling Technology Europe and sc-25336, Santa Cruz Biotechnologies) antibodies were diluted 1000×, 500× and 50× respectively in 5% non-fat dry milk in TBS-T. Membranes were incubated with primary antibodies overnight at 4° C., washed with TBS-T 3 times, incubated with HRP conjugated secondary antibodies (Promega) for 1 hour at room temperature, washed with TBS-T 3 times and imaged with Clarity Western ECL substrate (Bio-Rad). Membranes were scanned with a Bio-Rad ChemiDoc XRS+ Imaging System (Bio-Rad) and signal intensities were quantified using Image Lab software (Bio Rad). Band densitometry was assessed, normalized to vinculin bands, and reported as percentage of the DMSO control lane.

[4] = molecular target: AEVK-GFP in transduced Jurkat cells (Homo sapiens, UniProt Q96SW2+Q9UKT9, N149E/Q147A/Q150V/S154K); assay: Immunoblotting of AEVK ZF-eGFP; conditions: 10 μM; Jurkats transduced with AEVK-GFP
Sequence of AEVK-GFP in transduced Jurkat cells (Q9UKT9 130-189 Q147A/N149E/Q150V/S154K): as the sequence (Q9UKT9 130-189) above, with Q18A, N20E, Q21V, S25K counted along it
Sequence of AEVK-GFP in transduced Jurkat cells (Q96SW2 whole entry): as the sequence (Q96SW2 whole entry, the tested form may be a part) above
Description: as §2, with “Membranes were blocked in 5% non-fat dry milk (Bio Rad) in TBS-T. Primary IKZF3 (D1C1E, Cell Signaling Technology Europe), eGFP (F56-6A1.2.3, Thermo) and vinculin (E1E9V, Cell Signaling Technology Europe and sc-25336, Santa Cruz Biotechnologies) antibodies were diluted 1000×, 500× and 50× respectively in 5% non-fat dry milk in TBS-T. Membranes were incubated with primary antibodies overnight at 4° C., washed with TBS-T 3 times, incubated with HRP conjugated secondary antibodies (Promega) for 1 hour at room temperature, washed with TBS-T 3 times and imaged with Clarity Western ECL substrate (Bio-Rad).” left out

Compound	percent degradation of WT ZF-GFP at 10 µM [1]	degradation ability against the WT ZF sequence [1]	orthogonality index value (from pDC50 Q147A and pDC50 WT) [2]	degradation against Q147A relative to WT [2]	endogenous IKZF3 level relative to DMSO control (Western blot) [3]	level of endogenous IKZF3 (Western blot) ([3]; 10 μM, Jurkats transduced with AEVK-GFP)	ability to degrade endogenous IKZF3 (Western blot) [3]	degradation of AEVK-GFP (Western blot) [4]
CC(C)(C)c1ccc2c(c1)C(=O)N(C1CCC(=O)NC1=O)C2=O (centres unmarked) [A63, 5-(tert-butyl)-2-(2,6-dioxopiperidin-3-yl)isoindoline-1,3-dione]	60 to 70%	some degradation ability	> 10	improved degradation	unaffected	remains unaffected	neither A63 nor B08 possess ability to degrade endogenous IKZF3	full degradation
CN1CCN(c2ccc3c(c2)C(=O)N(C2CCC(=O)NC2=O)C3=O)CC1 (centres unmarked) [B08, 2-(2,6-dioxopiperidin-3-yl)-5-(4-methylpiperazin-1-yl)isoindoline-1,3-dione]	60 to 70%	some degradation ability	> 10	improved degradation	unaffected		neither A63 nor B08 possess ability to degrade endogenous IKZF3	
